Reference: patent publication US8129417B2, “Substituted octahydrocyclopenta[C]pyrrol-4-amines as calcium channel blockers” (Abbott Laboratories, priority 2008, dated 2012)

Target: human Cav2.2 (Homo sapiens, UniProt Q00975)
Assay: Assessment of calcium channel activity using FLIPR (Ca2+ influx in IMR32 cells)
Assay type: cell-based
Settings: 60 minute pre-incubation with compound, 2 μM nifedipine, depolarized with 80 mM KCl
Summary of the method: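 IMR32 neuroblastoma cells seeded at 1-1.2×10^5 cells/well and grown 48 h at 37 °C before FLIPR Ca2+ influx read. Percent inhibition at each concentration vs no-inhibitor activity; IC50 by non-linear sigmoidal dose-response fit.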

Chain of human Cav2.2 (Q00975 whole entry): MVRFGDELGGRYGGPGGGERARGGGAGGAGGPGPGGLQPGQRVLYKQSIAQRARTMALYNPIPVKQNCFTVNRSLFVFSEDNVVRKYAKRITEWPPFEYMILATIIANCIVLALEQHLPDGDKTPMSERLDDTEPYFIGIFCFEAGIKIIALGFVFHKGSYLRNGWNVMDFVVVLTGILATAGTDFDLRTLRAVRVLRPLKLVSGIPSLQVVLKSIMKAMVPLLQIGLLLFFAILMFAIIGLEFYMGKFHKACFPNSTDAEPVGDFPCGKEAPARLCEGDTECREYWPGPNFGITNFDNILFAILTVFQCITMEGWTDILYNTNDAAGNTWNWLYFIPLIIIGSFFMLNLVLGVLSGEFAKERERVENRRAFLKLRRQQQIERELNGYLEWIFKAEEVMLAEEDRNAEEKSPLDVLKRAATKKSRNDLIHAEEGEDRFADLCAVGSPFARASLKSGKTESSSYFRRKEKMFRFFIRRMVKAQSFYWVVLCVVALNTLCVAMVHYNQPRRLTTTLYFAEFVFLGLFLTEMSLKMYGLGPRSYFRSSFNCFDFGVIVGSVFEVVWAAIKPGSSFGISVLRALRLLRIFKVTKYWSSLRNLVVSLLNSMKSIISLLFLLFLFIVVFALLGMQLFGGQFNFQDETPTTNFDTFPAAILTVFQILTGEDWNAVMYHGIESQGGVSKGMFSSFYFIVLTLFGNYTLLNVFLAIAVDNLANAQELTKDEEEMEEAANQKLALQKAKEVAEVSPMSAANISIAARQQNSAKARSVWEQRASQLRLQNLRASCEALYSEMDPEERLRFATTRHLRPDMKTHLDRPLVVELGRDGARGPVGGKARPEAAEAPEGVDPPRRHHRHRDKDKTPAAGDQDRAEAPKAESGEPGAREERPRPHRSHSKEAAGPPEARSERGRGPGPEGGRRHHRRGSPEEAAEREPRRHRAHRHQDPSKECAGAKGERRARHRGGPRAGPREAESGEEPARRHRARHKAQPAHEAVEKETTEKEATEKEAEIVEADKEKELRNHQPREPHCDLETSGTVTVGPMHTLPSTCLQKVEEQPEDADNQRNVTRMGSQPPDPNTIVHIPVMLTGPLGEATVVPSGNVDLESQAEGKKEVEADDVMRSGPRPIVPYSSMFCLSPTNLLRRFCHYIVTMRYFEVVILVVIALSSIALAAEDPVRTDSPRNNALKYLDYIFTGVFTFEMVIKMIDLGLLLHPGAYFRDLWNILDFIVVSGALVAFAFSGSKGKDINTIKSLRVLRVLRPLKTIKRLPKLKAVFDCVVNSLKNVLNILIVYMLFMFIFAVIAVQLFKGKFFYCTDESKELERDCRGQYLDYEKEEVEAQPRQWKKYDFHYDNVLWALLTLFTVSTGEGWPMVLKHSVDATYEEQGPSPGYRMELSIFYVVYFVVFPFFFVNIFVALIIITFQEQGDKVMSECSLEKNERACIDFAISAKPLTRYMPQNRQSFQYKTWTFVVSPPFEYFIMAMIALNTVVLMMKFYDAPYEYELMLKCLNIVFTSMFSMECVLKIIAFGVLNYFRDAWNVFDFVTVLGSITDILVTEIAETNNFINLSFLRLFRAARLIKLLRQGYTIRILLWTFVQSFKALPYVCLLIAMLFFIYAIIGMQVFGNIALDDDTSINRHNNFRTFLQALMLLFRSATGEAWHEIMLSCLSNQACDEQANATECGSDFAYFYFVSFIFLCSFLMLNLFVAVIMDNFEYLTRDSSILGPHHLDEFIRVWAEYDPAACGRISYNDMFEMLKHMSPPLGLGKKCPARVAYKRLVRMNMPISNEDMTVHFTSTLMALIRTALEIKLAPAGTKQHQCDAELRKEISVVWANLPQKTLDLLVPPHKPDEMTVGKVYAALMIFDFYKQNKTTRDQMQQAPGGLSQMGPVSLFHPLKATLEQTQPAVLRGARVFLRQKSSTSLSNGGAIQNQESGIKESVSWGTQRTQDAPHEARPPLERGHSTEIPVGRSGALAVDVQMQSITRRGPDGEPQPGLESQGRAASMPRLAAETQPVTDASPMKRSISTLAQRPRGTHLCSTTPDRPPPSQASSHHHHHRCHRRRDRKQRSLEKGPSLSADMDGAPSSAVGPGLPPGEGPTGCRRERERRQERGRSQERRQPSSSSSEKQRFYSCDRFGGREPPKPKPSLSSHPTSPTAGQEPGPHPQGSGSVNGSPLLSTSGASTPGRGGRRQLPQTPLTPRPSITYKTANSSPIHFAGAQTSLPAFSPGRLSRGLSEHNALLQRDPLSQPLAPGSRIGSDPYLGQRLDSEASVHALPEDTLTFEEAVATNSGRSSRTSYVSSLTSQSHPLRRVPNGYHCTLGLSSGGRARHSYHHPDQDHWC
Chain of human Cav2.2 (P54289 25-946 partner limits assumed): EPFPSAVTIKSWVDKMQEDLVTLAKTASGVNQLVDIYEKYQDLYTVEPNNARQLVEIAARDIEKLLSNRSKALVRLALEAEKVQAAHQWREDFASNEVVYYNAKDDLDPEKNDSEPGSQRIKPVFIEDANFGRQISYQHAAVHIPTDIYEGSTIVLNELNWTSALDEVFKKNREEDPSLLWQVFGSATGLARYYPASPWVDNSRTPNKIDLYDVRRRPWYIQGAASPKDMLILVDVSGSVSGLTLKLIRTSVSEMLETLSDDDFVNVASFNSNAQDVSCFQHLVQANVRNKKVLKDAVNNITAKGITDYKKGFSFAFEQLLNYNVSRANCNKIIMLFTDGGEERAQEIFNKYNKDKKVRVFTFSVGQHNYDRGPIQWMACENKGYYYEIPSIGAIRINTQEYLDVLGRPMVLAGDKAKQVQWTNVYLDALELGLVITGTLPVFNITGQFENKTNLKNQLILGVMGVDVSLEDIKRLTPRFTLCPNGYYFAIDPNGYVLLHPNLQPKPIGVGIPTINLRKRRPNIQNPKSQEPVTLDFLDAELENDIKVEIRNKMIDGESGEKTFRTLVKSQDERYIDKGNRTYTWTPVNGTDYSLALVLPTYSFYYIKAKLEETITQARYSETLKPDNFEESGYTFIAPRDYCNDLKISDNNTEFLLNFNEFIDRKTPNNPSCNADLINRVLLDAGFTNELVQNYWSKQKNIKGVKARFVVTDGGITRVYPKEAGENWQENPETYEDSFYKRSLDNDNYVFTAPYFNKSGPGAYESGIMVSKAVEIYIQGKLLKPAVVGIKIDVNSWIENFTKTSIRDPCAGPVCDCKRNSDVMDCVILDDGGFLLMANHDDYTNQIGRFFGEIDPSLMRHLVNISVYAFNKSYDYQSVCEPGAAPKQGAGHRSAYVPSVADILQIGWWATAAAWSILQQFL
Chain of human Cav2.2 (P54289 947-1103 partner limits assumed): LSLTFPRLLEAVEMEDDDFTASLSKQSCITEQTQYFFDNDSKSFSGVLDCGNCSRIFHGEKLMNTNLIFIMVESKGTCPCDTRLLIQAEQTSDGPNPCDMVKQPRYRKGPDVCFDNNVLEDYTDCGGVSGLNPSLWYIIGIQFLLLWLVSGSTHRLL
Chain of human Cav2.2 (P54284 whole entry partner): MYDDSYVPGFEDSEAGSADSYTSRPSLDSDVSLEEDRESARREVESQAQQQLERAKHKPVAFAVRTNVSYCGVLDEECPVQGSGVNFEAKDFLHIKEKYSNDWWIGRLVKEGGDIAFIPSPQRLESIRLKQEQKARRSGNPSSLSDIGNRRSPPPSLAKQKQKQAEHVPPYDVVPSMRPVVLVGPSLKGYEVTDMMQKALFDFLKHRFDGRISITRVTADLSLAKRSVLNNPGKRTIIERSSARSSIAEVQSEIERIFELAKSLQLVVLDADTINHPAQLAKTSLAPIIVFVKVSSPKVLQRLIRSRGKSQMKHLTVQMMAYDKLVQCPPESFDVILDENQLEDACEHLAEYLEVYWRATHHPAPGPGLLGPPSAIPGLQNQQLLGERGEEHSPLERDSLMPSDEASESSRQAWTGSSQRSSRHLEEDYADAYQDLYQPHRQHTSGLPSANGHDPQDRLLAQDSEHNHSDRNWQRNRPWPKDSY

| IC50 | Structure (SMILES) |
| --- | --- |
| 1.11 µM | CCC[C@@H](C(=O)N[C@@H]1CC[C@H]2CN(S(=O)(=O)c3ccc(F)cc3)C[C@H]21)N(C)C(=O)OC(C)(C)C [Example 330, tert-butyl(S)-1-((3aS,4R,6aR)-2-(4-fluorophenylsulfonyl)octahydrocyclopenta[c]pyrrol-4-ylamino)-1-oxopentan-2-yl(methyl)carbamate] |
| 0.75 µM | CCC[C@@H](C(=O)N[C@@H]1CC[C@H]2CN(S(=O)(=O)c3ccc(C(F)(F)F)cc3)C[C@H]21)N(C)C(=O)OC(C)(C)C [Example 331, tert-butyl methyl((S)-1-oxo-1-((3aS,4R,6aR)-2-(4-(trifluoromethyl)phenylsulfonyl)octahydrocyclopenta[c]pyrrol-4-ylamino)pentan-2-yl)carbamate] |
| 0.48 µM | CC[C@H](C)[C@@H](C(=O)N[C@H]1CC[C@@H]2CN(S(=O)(=O)c3cccc(C(F)(F)F)c3)C[C@@H]21)N(C)C(=O)OC(C)(C)C [Example 332, tert-butyl methyl((2S,3S)-3-methyl-1-oxo-1-((3aR,4S,6aS)-2-(3-(trifluoromethyl)phenylsulfonyl)octahydrocyclopenta[c]pyrrol-4-ylamino)pentan-2-yl)carbamate] |
| 0.57 µM | CC[C@H](C)[C@@H](C(=O)N[C@H]1CC[C@@H]2CN(S(=O)(=O)c3ccc(C(F)(F)F)cc3)C[C@@H]21)N(C)C(=O)OC(C)(C)C [Example 333, tert-butyl methyl((2S,3S)-3-methyl-1-oxo-1-((3aR,4S,6aS)-2-(4-(trifluoromethyl)phenylsulfonyl)octahydrocyclopenta[c]pyrrol-4-ylamino)pentan-2-yl)carbamate] |
| 0.69 µM | CC[C@H](C)[C@@H](C(=O)N[C@@H]1CC[C@H]2CN(S(=O)(=O)c3cccc(C(F)(F)F)c3)C[C@H]21)N(C)C(=O)OC(C)(C)C [Example 334, tert-butyl methyl((2S,3S)-3-methyl-1-oxo-1-((3aS,4R,6aR)-2-(3-(trifluoromethyl)phenylsulfonyl)octahydrocyclopenta[c]pyrrol-4-ylamino)pentan-2-yl)carbamate] |
| 0.83 µM | CC[C@H](C)[C@@H](C(=O)N[C@@H]1CC[C@H]2CN(S(=O)(=O)c3ccc(C(F)(F)F)cc3)C[C@H]21)N(C)C(=O)OC(C)(C)C [Example 335, tert-butyl methyl((2S,3S)-3-methyl-1-oxo-1-((3aS,4R,6aR)-2-(4-(trifluoromethyl)phenylsulfonyl)octahydrocyclopenta[c]pyrrol-4-ylamino)pentan-2-yl)carbamate] |
| 0.48 µM | CN(C(=O)OC(C)(C)C)[C@@H](CC(C)(C)C)C(=O)N[C@H]1CC[C@@H]2CN(S(=O)(=O)c3cccc(C(F)(F)F)c3)C[C@@H]21 [Example 336, tert-butyl(S)-4,4-dimethyl-1-oxo-1-((3aR,4S,6aS)-2-(3-(trifluoromethyl)phenylsulfonyl)octahydrocyclopenta[c]pyrrol-4-ylamino)pentan-2-yl(methyl)carbamate] |
| 0.78 µM | CN(C(=O)OC(C)(C)C)[C@@H](CC(C)(C)C)C(=O)N[C@H]1CC[C@@H]2CN(S(=O)(=O)c3ccc(C(F)(F)F)cc3)C[C@@H]21 [Example 337, tert-butyl(S)-4,4-dimethyl-1-oxo-1-((3aR,4S,6aS)-2-(4-(trifluoromethyl)phenylsulfonyl)octahydrocyclopenta[c]pyrrol-4-ylamino)pentan-2-yl(methyl)carbamate] |
| 0.23 µM | CN(C(=O)OC(C)(C)C)[C@@H](CC(C)(C)C)C(=O)N[C@@H]1CC[C@H]2CN(S(=O)(=O)c3cccc(C(F)(F)F)c3)C[C@H]21 [Example 338, tert-butyl(S)-4,4-dimethyl-1-oxo-1-((3aS,4R,6aR)-2-(3-(trifluoromethyl)phenylsulfonyl)octahydrocyclopenta[c]pyrrol-4-ylamino)pentan-2-yl(methyl)carbamate] |
| 1.11 µM | CN(C(=O)OC(C)(C)C)[C@@H](CC(C)(C)C)C(=O)N[C@@H]1CC[C@H]2CN(S(=O)(=O)c3ccc(C(F)(F)F)cc3)C[C@H]21 [Example 339, tert-butyl(S)-4,4-dimethyl-1-oxo-1-((3aS,4R,6aR)-2-(4-(trifluoromethyl)phenylsulfonyl)octahydrocyclopenta[c]pyrrol-4-ylamino)pentan-2-yl(methyl)carbamate] |
| 1.03 µM | CC(C)[C@@H](C(=O)N[C@@H]1CC[C@H]2CN(S(=O)(=O)c3cccc(C(F)(F)F)c3)C[C@H]21)N(C)C(=O)OC(C)(C)C [Example 340, tert-butyl methyl((S)-3-methyl-1-oxo-1-((3aS,4R,6aR)-2-(3-(trifluoromethyl)phenylsulfonyl)octahydrocyclopenta[c]pyrrol-4-ylamino)butan-2-yl)carbamate] |
| 2.01 µM | CC(C)(C)OC(=O)N[C@H](C(=O)N[C@H]1CC[C@@H]2CN(S(=O)(=O)c3ccc(C(F)(F)F)cc3)C[C@@H]21)C(C)(C)C [Example 341, tert-butyl(S)-3,3-dimethyl-1-oxo-1-((3aR,4S,6aS)-2-(4-(trifluoromethyl)phenylsulfonyl)octahydrocyclopenta[c]pyrrol-4-ylamino)butan-2-ylcarbamate] |
| 2.17 µM | CC(C)(C)OC(=O)N[C@H](C(=O)N[C@@H]1CC[C@H]2CN(S(=O)(=O)c3ccc(C(F)(F)F)cc3)C[C@H]21)C(C)(C)C [Example 342, tert-butyl(S)-3,3-dimethyl-1-oxo-1-((3aS,4R,6aR)-2-(4-(trifluoromethyl)phenylsulfonyl)octahydrocyclopenta[c]pyrrol-4-ylamino)butan-2-ylcarbamate] |
| 1.01 µM | CCCC[C@@H](C(=O)N[C@H]1CC[C@@H]2CN(S(=O)(=O)c3ccc(C(F)(F)F)cc3)C[C@@H]21)N(C)C(=O)OC(C)(C)C [Example 343, tert-butyl methyl((S)-1-oxo-1-((3aR,4S,6aS)-2-(4-(trifluoromethyl)phenylsulfonyl)octahydrocyclopenta[c]pyrrol-4-ylamino)hexan-2-yl)carbamate] |
| 0.99 µM | CC(C)(C)C[C@H](NC(=O)OC(C)(C)C)C(=O)N[C@H]1CC[C@@H]2CN(S(=O)(=O)c3ccc(C(F)(F)F)cc3)C[C@@H]21 [Example 344, tert-butyl(S)-4,4-dimethyl-1-oxo-1-((3aR,4S,6aS)-2-(4-(trifluoromethyl)phenylsulfonyl)octahydrocyclopenta[c]pyrrol-4-ylamino)pentan-2-ylcarbamate] |
| 4.32 µM | CC(C)C[C@@H](C(=O)N[C@@H]1CC[C@H]2CN(C(=O)c3cccc(C(F)(F)F)c3)C[C@H]21)N1CCCC1 [Example 345, (2S)-4-methyl-2-pyrrolidin-1-yl-N-{(3aS,4R,6aR)-2-[3-(trifluoromethyl)benzoyl]octahydrocyclopenta[c]pyrrol-4-yl}pentanamide] |
| 9 µM | CN[C@@H](CC(C)(C)C)C(=O)N[C@@H]1CC[C@H]2CN(Cc3ccccc3)C[C@H]21 [Example 358, N^1-[(3aS,4R,6aR)-2-benzyloctahydrocyclopenta[c]pyrrol-4-yl]-N^2,4-dimethyl-L-leucinamide] |
| 8.12 µM | CN[C@@H](CC(C)C)C(=O)N[C@@H]1CC[C@@H]2CN(Cc3ccccc3)C[C@@H]21 [Example 364, N^1-[(3aR,4R,6aS)-2-benzyloctahydrocyclopenta[c]pyrrol-4-yl]-N^2-methyl-L-leucinamide] |
| 5.28 µM | CCN[C@@H](CC(C)C)C(=O)N[C@H]1CC[C@@H]2CN(Cc3cccc(C(F)(F)F)c3)C[C@@H]21 [Example 366, N^2-ethyl-N^1-{(3aR,4S,6aS)-2-[3-(trifluoromethyl)benzyl]octahydrocyclopenta[c]pyrrol-4-yl}-L-leucinamide] |
| 7 µM | CN[C@H](C(=O)N[C@@H]1CC[C@H]2CN(Cc3ccc(C(F)(F)F)cc3)C[C@H]21)C(C)C [Example 367, N^2-methyl-N^1-{(3aS,4R,6aR)-2-[4-(trifluoromethyl)benzyl]octahydrocyclopenta[c]pyrrol-4-yl}-L-valinamide] |
| 6.02 µM | O=C(N[C@@H]1CC[C@H]2CN(Cc3ccc(C(F)(F)F)cc3)C[C@H]21)[C@@H]1CCCCN1 [Example 370, (2S)—N-{(3aS,4R,6aR)-2-[4-(trifluoromethyl)benzyl]octahydrocyclopenta[c]pyrrol-4-yl}piperidine-2-carboxamide] |
| 7.58 µM | CN[C@H](C(=O)N[C@@H]1CC[C@H]2CN(Cc3cccc(C(F)(F)F)c3)C[C@H]21)C(C)C [Example 373, N^2-methyl-N^1-{(3aS,4R,6aR)-2-[3-(trifluoromethyl)benzyl]octahydrocyclopenta[c]pyrrol-4-yl}-L-valinamide] |
| 5.36 µM | CN[C@@H](CC(C)C)C(=O)N[C@@H]1CC[C@H]2CN(Cc3ccc(C(F)(F)F)c(F)c3)C[C@H]21 [Example 374, N^1-{(3aS,4R,6aR)-2-[3-fluoro-4-(trifluoromethyl)benzyl]octahydrocyclopenta[c]pyrrol-4-yl}-N^2-methyl-L-leucinamide] |
| 8.22 µM | CN[C@@H](CC(C)C)C(=O)N[C@@H]1CC[C@H]2CN(Cc3ccc(F)c(C(F)(F)F)c3)C[C@H]21 [Example 375, N^1-{(3aS,4R,6aR)-2-[4-fluoro-3-(trifluoromethyl)benzyl]octahydrocyclopenta[c]pyrrol-4-yl}-N^2-methyl-L-leucinamide] |
| 0.8 µM | CCN[C@@H](CC(C)C)C(=O)N[C@H]1CC[C@@H]2CN(S(=O)(=O)c3cccc(C(F)(F)F)c3)C[C@@H]21 [Example 383, N^2-ethyl-N^1-((3aR,4S,6aS)-2-{[3-(trifluoromethyl)phenyl]sulfonyl}octahydrocyclopenta[c]pyrrol-4-yl)-L-leucinamide] |
| 1.14 µM | CN[C@@H](CC(C)C)C(=O)N[C@H]1CC[C@@H]2CN(S(=O)(=O)c3cccc(C(F)(F)F)c3)C[C@@H]21 [Example 384, N^2-methyl-N^1-((3aR,4S,6aS)-2-{[3-(trifluoromethyl)phenyl]sulfonyl}octahydrocyclopenta[c]pyrrol-4-yl)-L-leucinamide] |
| 1.85 µM | N[C@@H](Cc1ccccc1)C(=O)N[C@H]1CC[C@@H]2CN(S(=O)(=O)c3cccc(C(F)(F)F)c3)C[C@@H]21 [Example 385, N-((3aR,4S,6aS)-2-{[3-(trifluoromethyl)phenyl]sulfonyl}octahydrocyclopenta[c]pyrrol-4-yl)-L-phenylalaninamide] |
